Counter-ions that a name gives are not always drawn.
Tests used:
aortic cholesterol = test: Aortic cholesterol in cholesterol-fed rabbits (Folch extraction, Liebermann-Burchard method); format: in vivo, rabbit (male albino Bouscat); conditions: rabbit
Text: (§1) 2. Effect on atheromatic deposits in the aorta and on plasma cholesterol in the rabbit
(§2) In order to create atheromatic lesions experimentally, male albino Bouscat rabbits having an average weight of 2.5 kg are fed on a Provende UAR rabbit diet plus 1 or 2% of cholesterol.
(§3) At the end of 11 to 12 weeks, the animals are sacrificed by having their carotid arteries cut after being anaesthetised with Nembutal and the aorta is removed from lowermost point to the iliac fork, cut open longitudinally and spread out upon a cork board. After fixing with formaldehyde and staining with a 2% aqueous solution of acid fuchsin, pearly white atheromatic spots are apparent against the red background which enables the extent of the deposit to be evaluated quantitatively on a scale from 0 to 5 with 0 corresponding to an absence of lesions and 5 to diffuse lipid deposits covering the whole of the endothelium.
After the inside layers of the wall of the aorta have been separated, all the lipids are extracted by the method of Folch et at. The amount of cholesterol is then determined using the Liebermann-Burchard method.
(§4) In a first test, 60 male rabbits each weighing 2.5 kg are fed on the diet detailed below:
(§5) 5 weeks : diet containing 2% of cholesterol
(§6) 3 weeks : diet containing 1% of cholesterol
(§7) From the beginning the animals are divided into 6 batches of 10 animals each which respectively receive, for the whole duration of the diet, the following products for 5 days per week by the digestive route using an oesophagal probe:
(§8) All the products are administered in suspension in the same volume of gum arabic (5 ml).
(§9) At the end of 12 weeks, visual examination of the atheromatic lesions in the aorta gave the results shown in Table II, the numerical data giving the average extent of deposit in each batch.
(§10) In a second test, using the same experimental method, the two following derivatives were studied in the doses indicated below: […]

plasma cholesterol = test: Plasma cholesterol in cholesterol-fed rabbits (Pearson method, Technicon auto-analyser); format: in vivo, rabbit (male albino Bouscat); conditions: rabbit
Method: as §1, §2
Moreover, a check on the plasma cholesterol is carried out at regular intervals during the test using the Pearson method as adopted to the Technicon auto-analyser by Boy, Bonnafe and Mazet (Applicant's own method).
as §4, §5, §6, §7, §8, §9, §10

[1] = Toxicity: maximum tolerated dose in the mouse, oral route; conditions: in vivo
[2] = test system: atheromatic deposits in the aorta; test: Effect on atheromatic deposits in the aorta (visual examination, scale 0 to 5) in cholesterol-fed rabbits; format: in vivo, rabbit (male albino Bouscat); conditions: for Activity ranking (anti-atheromatic): conclusion over both tests in rabbits; for Extent of atheromatic deposit: rabbit
Text: as §1, §2, §3, §4, §5, §6, §7, §8, §9, §10

[3] = Solubility in the standard solvents; format: physicochemical; conditions: all the standard solvents
[4] = second test, 50 mg/kg, same experimental method, diet only 22.1
[5] = second test, 50 mg/kg, same experimental method, diet only 2.5
[6] = second test, 50 mg/kg, same experimental method, scale 0 to 5, diet only 4
[7] = first test, 200 mg/kg oral (oesophagal probe), 5 days per week, 12 weeks, diet only 20.43
[8] = first test, 200 mg/kg oral (oesophagal probe), 5 days per week, 12 weeks, diet only 1.47
[9] = first test, 200 mg/kg oral (oesophagal probe), 5 days per week, 12 weeks, scale 0 (no lesions) to 5 (diffuse deposits), batch average, diet only 3.5

Row | Structure (SMILES) | Aortic cholesterol (aortic cholesterol; [4]) | Plasma cholesterol (plasma cholesterol; [5]) | MTD [1] | Activity ranking (anti-atheromatic) [2] | Extent of atheromatic deposit [2, 6] | Aortic cholesterol (aortic cholesterol; [7]) | Plasma cholesterol (plasma cholesterol; [8]) | Extent of atheromatic deposit [2, 9] | Solubility [3]
1 | C=CCSC[C@H](N)C(=O)OC(C)C [LJ 566, Isopropyl L β-(propen-2-ylthio) α-aminopropanoate hydrochloride] | 17.3 mg/kg | 2.3 g/L | 1500 mg/kg | the most active | 2.8 | – | – | – | –
2 | C=CCSC[C@H](NC(=O)CC[C@H](N)C(=O)O)C(=O)NCC(=O)O [LJ 545, L γ-glutamyl-S-allylcysteinyl glycine] | – | – | ≥ 10000 mg/kg | – | – | 14.38 mg/kg | 1.36 g/L | 2.70 | –
3 | CC(=Cc1ccccc1)CCSC[C@H](N)C(=O)O [LJ 540, L β-(4-phenyl-3-methylbuten-3-ylthio) α-aminopropanoic acid] | – | – | ≥ 10000 mg/kg | – | – | 15.00 mg/kg | 1.29 g/L | 2.60 | –
4 | CC(SC[C@H](N)C(=O)O)c1ccc(Cl)cc1 (stereo partly drawn) [LJ 550, L β-[1-(p-chlorophenyl)ethylthio]α-amino propanoic acid] | – | – | 4000 mg/kg | the most active | – | 11.90 mg/kg | 1.17 g/L | 2 | practically insoluble in all the standard solvents
5 | C=CCSC[C@H](N)C(=O)OCC [LJ 565, Ethyl L β-(propen-2-ylthio) α-amino propanoate hydrochloride] | 15 mg/kg | 2.1 g/L | 1500 mg/kg | the most active | 2.3 | – | – | – | –
6 | N[C@@H](CSCc1cccnc1)C(=O)O [LJ 546, L β-[(pyridyl-3)methylthio]α-amino propanoic acid] | – | – | 9000 mg/kg | the most active | – | 10.72 mg/kg | 0.99 g/L | 1.85 | –
7 | N[C@@H](CSCC=Cc1ccccc1)C(=O)O [LJ 536, L β-(3-phenyl-propen-2-ylthio) α-amino propanoic acid] | – | – | 4000 mg/kg | – | – | 12.21 mg/kg | 1.2 g/L | 2.05 | –
8 | CC(C)=CCC/C(C)=C/CSC[C@H](N)C(=O)O [LJ 558, S-geranylcysteine] | – | – | 8000 mg/kg | – | – | – | – | – | –

— US3950387A, “Cysteine derivatives” (Recherches Pharmaceutiques et Scientifiques, priority 1972, dated 1976)
